Results on eight compounds are retold here after ChEMBL document CHEMBL1155461, “Emerging targets in osteoporosis disease modification” (J Med Chem, 2010).

The test system of series [1] is Homo sapiens. The series is described as follows: Antiosteoporotic activity in men with osteoporosis assessed as decrease in bone resorption-associated serum CTX-1 level at 250 mg/kg after 10 to 14 days. The class given is functional, organism-based. Set-up: dose 250 mg/kg.
The target of series [2] is Parathyroid hormone/parathyroid hormone-related peptide receptor (Homo sapiens, UniProt Q03431).
A short description of series [3]: Clearance in dog. The following applies: in vivo. In kind it is ADME, organism-based, Canis lupus familiaris.
A short description of series [4]: Bioavailability in dog. In kind it is ADME, organism-based, Canis lupus familiaris. The following applies: in vivo.
The species entered for series [5] is Homo sapiens. Put plainly: Plasma protein binding in human. The following applies: read-out: PPB (converted).
Series [6] has as its target G-protein coupled receptor 55 (Homo sapiens, UniProt Q9Y2T6). Put plainly: Binding affinity to GPR55.
In series [7] the test system is Mus musculus. Put plainly: Antiosteoporotic activity in mouse assessed as decrease in bone resorption-associated serum CTX-1 level at 10 mg/kg administered 3 times a week for 8 weeks. The note with it: 1344 h. The class given is functional.
The species named for series [8] is Mus musculus. The series is described as follows: Induction of bone formation in GPR55 knockout male mouse assessed as increase in femur mass volume. In kind it is functional.
The species entered for series [9] is Mus musculus. The series is described as follows: Induction of bone formation in GPR55 knockout male mouse assessed as increase in tibia mass volume. In kind it is functional.
The subject of series [10] is Mus musculus. Put plainly: Antiosteoporotic activity in mouse assessed as increase in bone volume at 10 mg/kg administered 3 times a week for 8 weeks. In kind it is functional, Bone element.
Series [11] in a line: Aqueous solubility of the compound. The following applies: aqueous medium. The class given is physicochemical.
In series [12] the target is Vitronectin (Homo sapiens) (UniProt P04004). The series is described as follows: Inhibition of vitronectin.
Series [13] in a line: Clearance in rat. The class given is ADME, organism-based. The note with it: in vivo.
The next series addresses Integrin alpha-V/beta-3 (Homo sapiens, UniProt P05106+P06756).
Series [14] is described as follows: Half life in rat. The class given is ADME, organism-based. The note with it: in vivo.
Series [15] concerns the target Integrin alpha-IIb/beta-3 (Homo sapiens) (UniProt P05106+P08514). Put plainly: Inhibition of integrin alpha2Bbeta3. The class given is protein-complex assay.
Series [16] deals with Cynomolgus monkey. Put plainly: Antiosteoporotic activity in cynomolgus monkey assessed as increase in lumbar vertebrae bone strength at 1000 mg/kg administered daily for 1 year. The class given is functional, Macaca fascicularis, Lumbar vertebra.
Series [17] concerns Cynomolgus monkey. The series is described as follows: Antiosteoporotic activity in cynomolgus monkey assessed as increase in lumbar vertebrae bone strength at 30 mg/kg administered daily for 1 year. The class given is functional, Macaca fascicularis, Lumbar vertebra.
The subject of series [18] is Cynomolgus monkey. Put plainly: Antiosteoporotic activity in cynomolgus monkey assessed as decrease in bone resorption-associated serum CTX-1 level at 10 mg/kg, po administered as single dose. In kind it is functional. The following applies: Macaca fascicularis.
Series [19] has as its system Cynomolgus monkey. Put plainly: Antiosteoporotic activity in cynomolgus monkey assessed as decrease in bone resorption-associated serum CTX-1 level at 10 mg/kg, po administered 5X a day. The note with it: Macaca fascicularis. In kind it is functional.
Series [20] has as its system Cynomolgus monkey. The series is described as follows: Antiosteoporotic activity in cynomolgus monkey assessed as decrease in bone resorption-associated urinary CTX-1 level at 10 mg/kg, po administered 5X a day. The class given is functional. The following applies: Macaca fascicularis, Urine.
The test system of series [21] is Cynomolgus monkey. The series is described as follows: Antiosteoporotic activity in cynomolgus monkey assessed as decrease in bone resorption-associated urinary CTX-1 level at 10 mg/kg, po administered as single dose. In kind it is functional. The following applies: Macaca fascicularis, Urine.
Another series has as its target Cannabinoid receptor 2 (Homo sapiens, UniProt P34972). Put plainly: Antagonist activity at cannabinoid CB2 receptor. In kind it is functional.
For a further series, the system named is Osteoclast. The series is described as follows: Inhibition of osteoclast differentiation. In kind it is functional, cell-based.
For series [22], the target named is T1, Extracellular calcium-sensing receptor (Homo sapiens, UniProt P41180).
T1 sequence (P41180 whole entry): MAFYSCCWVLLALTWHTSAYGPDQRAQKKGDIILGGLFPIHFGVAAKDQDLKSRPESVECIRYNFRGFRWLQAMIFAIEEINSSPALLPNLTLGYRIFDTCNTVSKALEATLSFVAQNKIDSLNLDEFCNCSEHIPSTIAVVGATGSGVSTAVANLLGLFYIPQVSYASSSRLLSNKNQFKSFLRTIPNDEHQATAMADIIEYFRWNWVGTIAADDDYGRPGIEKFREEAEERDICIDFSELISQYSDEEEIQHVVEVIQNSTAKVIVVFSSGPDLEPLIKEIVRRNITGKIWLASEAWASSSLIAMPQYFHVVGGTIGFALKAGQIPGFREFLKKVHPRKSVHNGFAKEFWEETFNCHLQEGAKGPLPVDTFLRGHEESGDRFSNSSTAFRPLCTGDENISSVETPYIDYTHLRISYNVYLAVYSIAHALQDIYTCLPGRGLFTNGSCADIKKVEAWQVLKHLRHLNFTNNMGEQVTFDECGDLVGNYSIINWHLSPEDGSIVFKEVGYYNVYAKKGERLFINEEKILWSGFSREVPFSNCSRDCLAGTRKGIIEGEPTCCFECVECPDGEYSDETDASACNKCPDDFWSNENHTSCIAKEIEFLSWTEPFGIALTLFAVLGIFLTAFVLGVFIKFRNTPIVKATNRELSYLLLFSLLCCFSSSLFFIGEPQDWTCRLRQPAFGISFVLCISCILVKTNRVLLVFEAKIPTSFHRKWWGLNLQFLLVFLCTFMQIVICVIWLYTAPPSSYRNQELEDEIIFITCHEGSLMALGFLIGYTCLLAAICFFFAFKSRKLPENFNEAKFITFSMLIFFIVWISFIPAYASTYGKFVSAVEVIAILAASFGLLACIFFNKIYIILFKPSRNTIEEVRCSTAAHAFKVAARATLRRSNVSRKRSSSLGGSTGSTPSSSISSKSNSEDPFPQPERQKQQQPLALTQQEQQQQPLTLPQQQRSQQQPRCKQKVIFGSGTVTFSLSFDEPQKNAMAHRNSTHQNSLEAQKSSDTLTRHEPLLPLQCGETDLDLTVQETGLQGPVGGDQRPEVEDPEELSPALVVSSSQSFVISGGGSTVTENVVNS

Series [23] can be described thus: Oral bioavailability in rat. The class given is ADME, organism-based. The note with it: in vivo.
Series [24] has as its system Homo sapiens. Put plainly: Induction of bone formation in postmenopausal woman assessed as increase in osteocalcin level at […] after 28 days relative to placebo control. The class given is functional.
In series [25] the test system is Rattus norvegicus. Put plainly: Elevated PTH levels in ovariectomised rats as Cmax after 120 mg/kg oral dose. In kind it is functional, organism-based. Details: dose 120 mg/kg.
Series [26] has as its system Homo sapiens. Put plainly: Induction of bone formation in postmenopausal woman assessed as increase in PINP level at […] after 28 days relative to placebo control. In kind it is functional.
Series [27] relates to Homo sapiens. Put plainly: Induction of bone formation in postmenopausal woman assessed as increase in ALP level at […] after 28 days relative to placebo control. The class given is functional.
Series [28] concerns Rattus norvegicus. The series is described as follows: Elevated PTH levels in ovariectomised rats as Cmax after 60 mg/kg oral dose. The class given is functional, organism-based. Set-up: dose 60 mg/kg.
For series [29], the system named is Rattus norvegicus. The series is described as follows: Elevated PTH levels in ovariectomised rats as Cmax after 30 mg/kg oral dose. In kind it is functional, organism-based. Details: dose 30 mg/kg.

In brackets after ≈: the same amount, converted by molar mass.

Integrin alpha-V/beta-3, sequence (P05106 27-788 limits assumed): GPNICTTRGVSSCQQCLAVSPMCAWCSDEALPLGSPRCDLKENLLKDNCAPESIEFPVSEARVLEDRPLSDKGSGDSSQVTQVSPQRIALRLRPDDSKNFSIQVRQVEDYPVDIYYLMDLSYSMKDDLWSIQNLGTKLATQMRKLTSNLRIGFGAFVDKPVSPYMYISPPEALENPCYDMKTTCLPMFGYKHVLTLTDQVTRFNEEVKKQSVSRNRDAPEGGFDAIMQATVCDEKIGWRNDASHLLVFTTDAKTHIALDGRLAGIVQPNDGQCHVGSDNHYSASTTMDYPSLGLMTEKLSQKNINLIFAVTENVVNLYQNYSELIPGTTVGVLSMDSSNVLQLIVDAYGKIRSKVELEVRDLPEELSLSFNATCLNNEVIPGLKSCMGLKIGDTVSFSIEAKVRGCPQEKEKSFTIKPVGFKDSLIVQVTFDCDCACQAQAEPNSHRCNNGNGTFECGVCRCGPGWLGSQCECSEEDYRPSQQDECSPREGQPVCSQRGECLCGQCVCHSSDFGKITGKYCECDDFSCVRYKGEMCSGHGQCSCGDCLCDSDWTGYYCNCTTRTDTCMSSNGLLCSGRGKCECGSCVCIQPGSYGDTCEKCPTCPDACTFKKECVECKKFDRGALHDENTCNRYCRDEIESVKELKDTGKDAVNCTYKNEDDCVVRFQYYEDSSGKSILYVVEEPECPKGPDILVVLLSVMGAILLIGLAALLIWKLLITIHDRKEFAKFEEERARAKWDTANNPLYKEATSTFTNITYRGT
Integrin alpha-V/beta-3, sequence (P06756 31-889 limits assumed): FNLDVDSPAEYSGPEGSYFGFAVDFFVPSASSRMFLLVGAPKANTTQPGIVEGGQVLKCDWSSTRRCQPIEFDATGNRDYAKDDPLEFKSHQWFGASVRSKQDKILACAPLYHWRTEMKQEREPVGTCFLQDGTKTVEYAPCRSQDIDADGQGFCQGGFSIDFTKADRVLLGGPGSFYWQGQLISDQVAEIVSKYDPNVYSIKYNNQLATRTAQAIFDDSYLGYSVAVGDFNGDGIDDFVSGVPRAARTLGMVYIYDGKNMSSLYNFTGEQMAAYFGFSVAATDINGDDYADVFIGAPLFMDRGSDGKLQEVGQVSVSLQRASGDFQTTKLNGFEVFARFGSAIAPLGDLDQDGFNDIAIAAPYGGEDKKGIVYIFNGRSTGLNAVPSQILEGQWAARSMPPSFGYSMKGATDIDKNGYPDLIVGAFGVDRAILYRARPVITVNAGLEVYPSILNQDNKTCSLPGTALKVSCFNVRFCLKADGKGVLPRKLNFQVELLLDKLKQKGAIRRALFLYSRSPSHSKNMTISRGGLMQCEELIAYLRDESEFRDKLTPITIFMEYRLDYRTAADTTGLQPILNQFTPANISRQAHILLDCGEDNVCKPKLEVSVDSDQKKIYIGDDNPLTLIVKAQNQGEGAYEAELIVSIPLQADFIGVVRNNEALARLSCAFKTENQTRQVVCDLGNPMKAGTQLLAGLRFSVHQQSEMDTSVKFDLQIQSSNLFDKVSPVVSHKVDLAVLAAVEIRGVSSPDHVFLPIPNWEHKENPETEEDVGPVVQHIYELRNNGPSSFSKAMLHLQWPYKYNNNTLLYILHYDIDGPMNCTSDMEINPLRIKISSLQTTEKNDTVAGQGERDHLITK
Integrin alpha-V/beta-3, sequence (P06756 891-1048 limits assumed): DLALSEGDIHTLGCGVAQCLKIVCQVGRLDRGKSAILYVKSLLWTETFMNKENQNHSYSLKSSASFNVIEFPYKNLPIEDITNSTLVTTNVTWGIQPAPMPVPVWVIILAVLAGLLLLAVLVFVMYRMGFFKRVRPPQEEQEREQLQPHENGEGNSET
G-protein coupled receptor 55, sequence (Q9Y2T6 whole entry): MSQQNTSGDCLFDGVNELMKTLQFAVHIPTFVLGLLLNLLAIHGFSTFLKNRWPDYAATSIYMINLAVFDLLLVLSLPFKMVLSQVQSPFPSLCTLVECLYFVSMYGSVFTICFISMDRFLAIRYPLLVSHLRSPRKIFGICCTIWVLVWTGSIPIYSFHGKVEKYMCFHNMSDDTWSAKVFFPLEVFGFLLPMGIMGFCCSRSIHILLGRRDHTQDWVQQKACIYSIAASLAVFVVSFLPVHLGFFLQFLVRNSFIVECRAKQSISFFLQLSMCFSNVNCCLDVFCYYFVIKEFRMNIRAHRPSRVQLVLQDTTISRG
Cannabinoid receptor 2, sequence (P34972 whole entry): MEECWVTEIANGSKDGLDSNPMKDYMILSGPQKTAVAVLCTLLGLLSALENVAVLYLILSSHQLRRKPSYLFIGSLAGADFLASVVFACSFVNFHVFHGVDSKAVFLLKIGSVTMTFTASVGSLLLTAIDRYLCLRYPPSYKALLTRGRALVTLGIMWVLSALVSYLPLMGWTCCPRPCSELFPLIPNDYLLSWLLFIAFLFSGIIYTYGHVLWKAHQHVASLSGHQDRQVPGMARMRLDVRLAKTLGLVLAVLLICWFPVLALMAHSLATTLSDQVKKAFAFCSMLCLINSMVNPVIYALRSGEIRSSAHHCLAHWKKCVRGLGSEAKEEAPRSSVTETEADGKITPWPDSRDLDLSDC
Parathyroid hormone/parathyroid hormone-related peptide receptor, sequence (Q03431 whole entry): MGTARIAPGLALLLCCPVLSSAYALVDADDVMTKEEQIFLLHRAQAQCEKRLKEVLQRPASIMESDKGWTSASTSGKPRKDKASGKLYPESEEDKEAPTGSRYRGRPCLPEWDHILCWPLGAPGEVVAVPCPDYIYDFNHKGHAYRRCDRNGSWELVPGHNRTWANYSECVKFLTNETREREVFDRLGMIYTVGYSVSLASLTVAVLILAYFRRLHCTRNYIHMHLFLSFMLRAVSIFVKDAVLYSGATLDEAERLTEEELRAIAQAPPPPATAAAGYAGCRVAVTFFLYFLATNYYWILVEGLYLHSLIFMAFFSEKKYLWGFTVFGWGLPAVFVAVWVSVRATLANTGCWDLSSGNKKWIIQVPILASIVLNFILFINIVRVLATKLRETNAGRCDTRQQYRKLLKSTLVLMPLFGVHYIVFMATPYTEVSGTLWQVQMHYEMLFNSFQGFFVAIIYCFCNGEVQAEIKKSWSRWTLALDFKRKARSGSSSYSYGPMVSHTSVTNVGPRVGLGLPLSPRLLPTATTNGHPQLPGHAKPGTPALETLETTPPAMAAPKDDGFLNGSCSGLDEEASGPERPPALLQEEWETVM
Vitronectin (Homo sapiens), sequence (P04004 whole entry): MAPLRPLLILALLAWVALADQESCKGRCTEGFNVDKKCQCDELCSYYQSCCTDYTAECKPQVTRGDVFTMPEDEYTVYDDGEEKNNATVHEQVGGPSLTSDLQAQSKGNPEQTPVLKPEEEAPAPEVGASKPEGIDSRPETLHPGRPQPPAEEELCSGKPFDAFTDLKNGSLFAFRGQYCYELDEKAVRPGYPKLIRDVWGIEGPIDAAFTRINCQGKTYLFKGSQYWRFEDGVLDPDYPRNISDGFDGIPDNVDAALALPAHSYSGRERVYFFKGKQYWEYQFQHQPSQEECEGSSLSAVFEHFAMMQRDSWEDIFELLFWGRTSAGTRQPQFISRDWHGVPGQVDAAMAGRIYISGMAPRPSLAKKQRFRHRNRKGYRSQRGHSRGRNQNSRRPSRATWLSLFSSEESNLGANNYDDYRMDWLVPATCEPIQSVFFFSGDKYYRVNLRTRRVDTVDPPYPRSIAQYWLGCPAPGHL

In general, EC50 refers to the midpoint of the concentration-response curve. For `CCCCN1C(=O)C(=C(N)N)C(=O)N(CCCC)C1=O`, the EC50 in the series on Homo sapiens [1] came to 1500 nM; in series [2], 3200 nM.
Usually clearance stands for the volume of plasma or blood freed of the substance per unit of time. The term bioavailability denotes dose-corrected exposure relative to a reference, in per cent. Compound `COc1ccc([C@@H](CCC[C@H](O)CCc2ccc3c(n2)NCCC3)CC(=O)O)cn1` gave a clearance in [3] of 2.5 mL/min/kg. The bioavailability in series [4] was 60%. In the series filed under Homo sapiens [5], the fraction unbound was 0.07.
Broadly, the inhibition in vivo is the percentage by which the read-out fell short of the control. In turn, `C=C(C)[C@@H]1CCC(C)=C[C@H]1c1c(O)cc(CCCCC)cc1O` [CANNABIDIOL] showed an EC50 in [6] of 445 nM. Moreover, in the series with Mus musculus [7], the inhibition in vivo at 10 mg/kg was found to be 18%. The figures for the Activity in the series listed under Mus musculus [8], in the series listed under Mus musculus [9] and in the series with Mus musculus [10] were 149%, 136% and 10%, respectively.
As a reminder, the solubility is the concentration that dissolves in the medium under given conditions. For orientation: IC50 means the concentration at which inhibition is half-maximal. As usually defined, the half-life is the time in which the quantity being followed falls by half. For the compound `COc1cc(C(=O)NC[C@H](NS(=O)(=O)c2ccccc2)C(=O)O)ccc1N1CCC(NC2=NCCCN2)CC1`, the concentration in solution in [11] (solubility) was 1300 µg/mL (≈ 2330 µM). For the same compound, the INH came out at 110 nM in series [12] and 0.44 nM in [15]. In addition, the clearance in series [13] was 47 mL/min/kg. Further, the concentration for half-maximal inhibition (IC50) against Integrin alpha-V/beta-3 was found to be 0.19 nM. For the same compound, the half-life in series [14] stood at 46 min.
On to `CC(C)C[C@H](NC(=O)c1cc2ccccc2o1)C(=O)N[C@H]1CC[C@@H](C)N(S(=O)(=O)c2ccccn2)CC1=O` [RELACATIB], for which the Activity in the series with Cynomolgus monkey [16] came to 49%; with Cynomolgus monkey [17], 42%. The inhibition in vivo at 10 mg/kg with Cynomolgus monkey [18], with Cynomolgus monkey [19], in the series on Cynomolgus monkey [20] and in the series on Cynomolgus monkey [21] was not above 57% in each case.
Regarding `COc1ccc(C(=O)c2c(C)n(CCN3CCOCC3)c3cc(I)ccc23)cc1`, the figures for the IC50 against Cannabinoid receptor 2 and with Osteoclast were 7200 nM and 330 nM, respectively.
With `Cc1ccc(CC(C)(C)NC[C@@H](O)CO[C@H](C)c2ccccc2[C@@H]2C[C@@H]3C[C@H]2[C@H]2[C@H](C(=O)O)[C@@H]32)cc1F`, in [22], the IC50 amounted to 25 nM. For the same compound, in series [23], the bioavailability came to 60%.
`CC(C)(CC1Cc2ccccc2C1)NC[C@@H](O)COc1cc(CCC(=O)O)cc(F)c1F.Cl` [RONACALERET HYDROCHLORIDE]: the results for the Activity with Homo sapiens [24], in the series on Homo sapiens [26] and with Homo sapiens [27] were 63%, 79% and 35%, respectively. The Cmax PTH was found to be 68 pM in the series with Rattus norvegicus [25], 66 pM in the series on Rattus norvegicus [28] and 33 pM with Rattus norvegicus [29].
